Molecular target: T1, COX-2 (Homo sapiens, UniProt P35354)
T1 construct: from tissue; host or cells: heparinised human whole blood from a healthy donor, stimulated with LPS
T1 sequence (P35354 18-604): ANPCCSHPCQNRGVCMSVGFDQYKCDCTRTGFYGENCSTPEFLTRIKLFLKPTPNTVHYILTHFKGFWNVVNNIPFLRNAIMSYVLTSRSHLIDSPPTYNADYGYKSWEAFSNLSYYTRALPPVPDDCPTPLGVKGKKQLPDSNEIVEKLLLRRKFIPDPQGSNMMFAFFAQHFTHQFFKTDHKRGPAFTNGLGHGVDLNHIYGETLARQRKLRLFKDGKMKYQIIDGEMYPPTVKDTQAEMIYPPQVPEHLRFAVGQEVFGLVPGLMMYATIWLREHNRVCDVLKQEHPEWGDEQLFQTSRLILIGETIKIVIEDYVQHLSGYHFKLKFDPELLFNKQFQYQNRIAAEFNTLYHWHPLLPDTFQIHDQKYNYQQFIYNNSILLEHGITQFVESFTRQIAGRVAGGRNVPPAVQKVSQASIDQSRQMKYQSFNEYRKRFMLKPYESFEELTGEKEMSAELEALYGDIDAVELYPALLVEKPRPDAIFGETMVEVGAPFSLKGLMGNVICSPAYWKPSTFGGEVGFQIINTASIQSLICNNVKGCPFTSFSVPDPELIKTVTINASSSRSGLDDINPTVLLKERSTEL
Experiment: Human whole blood assay, in vitro COX-2 assay (LPS-induced PGE2 by EIA)
Format: cell-based
Conditions: ratio of IC50 COX-1 to IC50 COX-2
Experimental: This test was performed according to the method described in Inflamm. Res., 45: 68-74 (1996).
A person who had not taken NSAIDs for at least one week and was healthy on the day of blood collection was selected as a subject for blood collection.
Blood was collected in heparin-treated test tubes (Venojectll blood collection tubes, Terumo Corporation), and an inflammatory stimulant, lipopolysaccharide (LPS) (Sigma-Aldrich Japan Inc., #L2880 from E. coli055:B5: diluted in phosphate buffered saline (PBS) to a final concentration of 100 μg/mL) was added to the blood. The mixture was dispensed in 500 μL aliquots into tubes. 2 μL of the test compound (final concentration: 0.1 μM to 1000 μM) dissolved in an appropriate solvent (DMSO or MilliQ water) was added and incubated at 37° C. for 24 hours to induce COX-2.
After incubation, the samples were centrifuged at 12,000×g for 5 minutes to separate serum. 100 μL of the obtained serum was added to 400 μL of ethanol to remove blood protein, and the mixture was centrifuged again at 12,000×g for 5 minutes. PGE2 in the supernatant was quantified by using an enzyme immunoassay (EIA) kit [Cayman (Ann, Arbor, Mich., USA) #514040]. The protocol followed the protocol attached to the kit.

CC(C(=O)O)c1ccc(CC2CCCC2=O)cc1 (stereo not shown) [LOXONIN, loxoprofen]
COX-2 S[…]. 1/COX. 2: 4.0

Source: patent US8431614B2, “Loxoprofen derivative and pharmaceutical preparation containing the same” (LTT Bio-Pharma Co., Ltd., priority 2009, dated 2013)
